# Test results taken from paper PMC11965660, “Isobavachalcone ameliorates Alzheimer disease pathology by autophagy-mediated clearance of amyloid beta and inhibition of NLRP3 inflammasome in primary astrocytes and 5x-FAD mice” (Frontiers in Pharmacology, 2025).
# Experiments:
# Aβ42 = assay: Aβ clearance assay in primary astrocytes; format: cell-based, C57BL/6J mice
# Protocol: Aβ42-HiLyte fluor488 peptide was prepared following the manufacturer’s protocol (Anaspec Inc.). Primary astrocytes seeded on coverslips were treated with IBC (10 μM) or rapamycin (24 h). After 12 h, 2 μg/ml fluorochrome tagged (Hilyte fluor488) Aβ42 protein was added to cells for another 12 h. Bafilomycin A1 was given 3 h prior to experiment termination. After the end of the assay, cells were washed with PBS and cells were fixed with 4% PFA, permeabilized with Triton-X 100, and the nucleus was stained with DAPI, as mentioned above. Similarly, slides were prepared, and images were taken and analyzed in the CQ1 high throughput imaging system.
# AMPK expression was knocked down from the cells by using siRNA against AMPK using FuGENE HD for 24 h. Primary astrocytes seeded in 6 well plates were incubated in OPTI-MEM media for 30 min prior to transfection. The transfection mixture was prepared and kept in sterile condition for 20 min before being added to the cells. Following this, cells were treated for NLRP3 inflammasome activation as described above.
# 5x-FAD mice = assay: Rotarod test; format: in vivo
# Text: Hemizygous 5x-FAD transgenic mice (B6.Cg-Tg(APPSwFlLon, PSEN1*M146L*L286V) 6799Vas/Mmjax; MMRRC Strain: 034848-JAX) on congenic C57BL/6J genetic background were used for experiments. The 5x-FAD mice were genotyped using APP-specific qPCR probes to detect the transgene as per the protocol of Jackson Laboratory. Six months old 5x-FAD mice were randomly divided into three groups (n = 5), based on their body weights, with three males and two females in each group. We used mixed-cohort of males and females for our study to exclude any gender biased effect of IBC. Also, AD symptoms are more pronounced in females than in males ([Aggarwal and Mielke, 2023]), making it possible that males and females respond differently to the drug and treatment. […]
# To check the effect of IBC on the behavior of 5x-FAD mice, open field test (OFT), rotarod (Make; Ugo Basile, rota-rod for mice 7650) and radial arm maze (Make; Ugo Basile) tests were performed. […] After acclimatizing mice with rotarod for 5 days, their latency to fall was calculated on the day of analysis. […] Distance traveled, speed, time spent in corner and center zones and mobile episodes were recorded through an automated video tracking system using AnyMaze software. […] The movement of mice was tracked with the help of automated AnyMaze software connected with a tracking camera and various memory retention parameters were assessed.
# Aβ plaques = assay: Immunohistochemistry of Aβ in hippocampus; format: in vivo, 5x-FAD mice; details: for average number of Aβ plaques: 5x-FAD mice
# Text: Hemizygous 5x-FAD transgenic mice (B6.Cg-Tg(APPSwFlLon, PSEN1*M146L*L286V) 6799Vas/Mmjax; MMRRC Strain: 034848-JAX) on congenic C57BL/6J genetic background were used for experiments. The 5x-FAD mice were genotyped using APP-specific qPCR probes to detect the transgene as per the protocol of Jackson Laboratory. Six months old 5x-FAD mice were randomly divided into three groups (n = 5), based on their body weights, with three males and two females in each group. We used mixed-cohort of males and females for our study to exclude any gender biased effect of IBC. Also, AD symptoms are more pronounced in females than in males ([Aggarwal and Mielke, 2023]), making it possible that males and females respond differently to the drug and treatment. Considering this, it is important to show effect of IBC on both sexes. At this age, Aβ deposition and neuroinflammation has already progressed in these mice. We have used IBC as a curative drug rather than a preventive drug. Prior to the initiation of the study, all the animals were acclimatized for 1 week under standard laboratory conditions; animals were drug naive with no prior procedures performed. All testing were performed from 1 to 4 p.m. IBC was orally (OD) given to two groups at different doses, 25 mg/kg (1% DMSO, 2% Tween 80, 19% PEG200, and 78% distilled water) and 50 mg/kg (1% DMSO, 5% Tween 80, 19% PEG200% and 75% distilled water) using oral gavage. 5x-FAD control mice were administered with vehicle (1% DMSO, 5% Tween 80, 19% PEG200% and 75% distilled water). For behavioral and Immunohistochemistry assays, experimenters were blinded to animal identity while carrying out the procedures.
# Mice’s hippocampus tissue was fixed in 10% formalin. Dehydrated tissue slices were made and placed on slides. For analysis, tissue was rehydrated following subsequent incubation in xylene, xylene: ethanol, 100% ethanol, 90% ethanol, 70% and 50% ethanol. After tissue rehydration, cells were permeabilized using 0.4% Triton-X100 for 10 min. […] Images were taken in a CQ1 high throughput imaging system and analyzed using cell pathfinder software.
smiles,measurement,setting,value
"CC(C)=CCc1c(O)ccc(C(=O)/C=C/c2ccc(O)cc2)c1O [IBC, isobavachalcone]",intracellular Aβ level,Aβ42; 10 μM with bafilomycin A1,increased
same,effect on clearance of Aβ,Aβ42; 10 μM with siAMPK,complete reversal
same,intracellular Aβ42-HiLyte fluor488 fluorescence,"Aβ42; 10 μM, 24 h, vs cells with Aβ alone",significantly low fluorescence
same,latency to fall from rotarod,5x-FAD mice; 25 mg/kg oral,92 s
same,latency to fall from rotarod,5x-FAD mice; 50 mg/kg oral,118 s
same,average number of Aβ plaques,Aβ plaques; 25 mg/kg oral 2 months,21
same,average number of Aβ plaques,Aβ plaques; 50 mg/kg oral 2 months,15
same,total Aβ fluorescence intensity,"Aβ plaques; 25 and 50 mg/kg, vs 5x-FAD control",highly significant decline
